Results reported in US20140154717A1, “METHOD FOR DETECTING CANCER CELL USING FLUORESCENTLY LABELED L-GLUCOSE DERIVATIVE, AND CANCER CELL-IMAGING AGENT COMPRISING FLUORESCENTLY LABELED L-GLUCOSE DERIVATIVE” (priority 2011, published 2014).
Entries after “also recorded” stand apart in the source; their conditions may differ.

How the values were obtained:
[1] = tested on: tumor cells (C6 glioma); assay: In vivo fluorescent imaging using C6 tumor model mice (rat glioma C6 cells transplanted subcutaneously in nude mice); design: species or system mouse
Protocol: C6 cells were prepared according to an ordinary method so that the cell number was 2×10^7 cells/mL.
C6 cells were seeded on a 10 cm petri dish, allowed to stand still in a CO2 incubator, and cultured at 37° C. The culture medium was exchanged once every two days.
1 g/L glucose-containing Dulbecco's modified Eagle's Medium (DMEM) (Nacalai No. 08456-65), to which Fetal Bovine Serum (Equitech-Bio SFBM) was added so that the final concentration was 10% and penicillin-streptomycin (Nacalai No. 26253-84) was added so that the final concentration was 1%, was used.
5 to 6-week old athymic nude mice (BALB/cAJcl-nu/nu) were transplanted with 50 μL of a cell suspension adjusted to 2×10^7 cells/mL subcutaneously around the root of right hind paw, under isoflurane anesthesia. The transplanted tumor cells were observed until growing to about 200 to 300 mm^3, and used in vivo fluorescent imaging.
C6 tumor model mice were allowed to stand still in an in vivo fluorescence imaging apparatus IVIS (registered trademark) Kinetics (Caliper Life sciences) under isoflurane anesthesia and autofluorescence of the mouse skin was measured, and subsequently, 400 nmol (100 μL) of 2-NBDLG or 2-NBDG dissolved in physiological saline was administered from the tail vein over a period of 30 seconds, and measurement of the fluorescence imaging was started again from one minute after starting administration. The in vivo fluorescence imaging was measured at an excitation wavelength of 465 nm using a GFP filter (transmittable fluorescence wavelength: 515-575 nm). The measurement was conducted for 45 minutes, and images were taken every one minute during the initial 20 minute and every 5 minutes from 20 to 45 minutes, obtaining 25 images in total. The accumulated values (fluorescence value) of 2-NBDLG and 2-NBDG in the interested area were obtained by subtracting the autofluorescence images from the 25 images taken after administration of 2-NBDLG or 2-NBDG.
A vial of 0.5 mg of 2-NBDLG or 2-NBDG was dissolved in 400 μL of physiological saline directly before the experiment, to prepare a solution having a final concentration of 400 nmol/100 μL.

[2] = tested on: mouse insulinoma cells (MIN6); assay: Uptake into MIN6 cells with or without inhibitors, fluorescence microplate reader (Flex Station); type: cell-based; conditions: 200 μM, 5 minutes
Protocol: A difference in the uptake of 2-NBDLG (200 μM) and 2-NBDG (200 μM) into mouse insulinoma cells (MIN6) each applied for 5 minutes was analyzed quantitatively by a fluorescence microplate reader Flex Station (manufactured by Molecular Devices Corporation) in the condition whether or not various inhibitors are present. The well used for measurement was a 96-well clear bottomed well plate μ CLEAR-PLATE (Greiner bio-one, BLACK, 96 well, #655090) having longitudinally […] to 12 twelve columns, and MIN6 cell suspension prepared at a proportion of 6×10^5 cells/mL was seeded uniformly into wells from line B to line G at the third column and the fifth column each in an amount of 15 μL. For medium exchange, the half quantity was exchanged every two days in 0 to 4 DIV (days in vitro), and from 5 DIV or later, exchanged every day, and on days 10 to 13 (10 to 13 DIV), the cells were subjected to an experiment. Line A and line H were used as a control for checking correct washout, without seeding cells. In the fourth column, cells were not present, and wells in this column were used as a blank containing only Krebs Ringer buffer solution (KRB, containing 0.1 mM gap junction inhibitor carbenoxolone and 5.6 mM glucose). Evaluation was done in a way that 2-NBDLG or 2-NBDG was charged in each tube of a 8-strip PCR tube, and sucked using a 8-channel pipette and dropped simultaneously into wells. In this way, administration to wells for 2-NBDLG and to wells for 2-NBDG can be done simultaneously, making reliable evaluation possible. As described above, cells are present in 12 wells in the third and the fifth two columns, and these were divide into 4 groups each having 3 wells according to a difference either 2-NBDLG or 2-NBDG and whether an inhibitor is present or absent. Specifically, when checking the effect by the presence or absence of a GLUT inhibitor Cytochalasin B (10 μM) on the uptake of 2-NBDLG (200 μM) and 2-NBDG (200 μM), first, in wells, which are planned to be measured in the presence of Cytochalasin B, Cytochalasin B was added 5 minutes prior to the administration of the fluorescently labeled glucose derivative. Before administration of a fluorescently labeled glucose derivative, the autofluorescence was measured in each well. The measurement was done with Flex Station in Well Scan Mode and in the Bottom Read position at Ex 470 nm, Em 540 nm, Cut off 495 nm, Averaging 3, and Photomultiplier sensitivity: high. In Well Scan Mode of the fluorescence microplate reader Flex Station, one well was divided into nine observation areas and these are measured independently. The presence of approximately 5000 cells in each of 9-divided areas was separately confirmed by Z section measurement of a realtime deconvolution microscope. 2-NBDG and 2-NBDLG were administered with or without Cytochalasin B (37° C., 5 minutes), and after cessation of administration, an operation of adding 250 μL of a KRB solution containing no fluorescently labeled glucose into 50 μL of a solution in a well was repeated 7 times while measuring with a stopwatch, thereby performing washout until the fluorescence intensities of wells in line A and line H set as a control group became equal to the fluorescence intensity of the blank well containing no cell. This process required 7 minutes, and even if cells having broken plasma membrane condition are brought into contact with 2-NBDG and 2-NBDLG, and even if these compounds are once taken up into the cell, these compounds are already eliminated out of the cell and are washed away in measurement, therefore, contribution to an increase in the fluorescence intensity in the whole observation area was judged to be in an ignorable level. This was supported by a separate pharmacological inhibition experiment in which the increase in the fluorescence intensity nearly disappears in the presence of an inhibitor. The above-described method was carried out similarly in the case of other inhibitors. […]

## O=[N+]([O-])c1ccc(NC2C(O)OC(CO)[C@H](O)C2O)c2nonc12 (stereo partly drawn) [2-NBDLG, 2-[N-(7-Nitrobenz-2-oxa-1,3-diazol-4-yl)amino]-2-deoxy-L-glucose]
[1]; 400 nmol i.v., temporal change over 45 minutes, same result in 6 examples
  fluorescence values at tumor-transplanted part (Tumor) versus normal tissue (BG), FIG. 3: fluorescence values at the tumor-transplanted part (blue rhombus, Tumor) are consistently larger than at normal tissue
[1]; 400 nmol/100 μL from the tail vein
  time from which accumulations at the tumor cell-transplanted part were recognized: around 5 minutes after administration
[1]; 400 nmol/100 μL from the tail vein over 30 seconds, non-fasted nude mice, fluorescence images every one minute
  accumulation at the tumor-transplanted part: intense accumulations
[1]; 400 nmol/100 μL from the tail vein, non-fasted mice
  contrast between tumor-transplanted part and normal tissue (adipocyte-rich dorsal part near neck): excellent contrast; also recorded: high contrast
[1]; 400 nmol/100 μL from the tail vein, normal tissue (fat tissue on the back, between back bones, muscle)
  uptake/accumulation in normal tissue: scarcely taken up
[2]; 37° C., Cytochalasin B (10 µM, CB)
  effect of GLUT inhibitor Cytochalasin B on uptake into MIN6 cells: did not show a significant decrease (N.S.)
[2]; 37° C., Na(−) buffer, choline substituted
  uptake into MIN6 cells in buffer containing Na+ versus no Na+ ion (SGLT): no significant difference
[2]; Phloretin (150 μM, PHT)
  effect of Phloretin on uptake into MIN6 cells: underwent inhibition of the uptake
